How the values were obtained:
Assay in all cases: relative viability (nuclei count vs DMSO), 5 days (fraction); higher = more cells survive
[1] = compound: CC(=O)Nc1cccc(-n2c(=O)n(C3CC3)c(=O)c3c(Nc4ccc(I)cc4F)n(C)c(=O)c(C)c32)c1 [Trametinib] + CC(=O)c1c(C)c2cnc(Nc3ccc(N4CCNCC4)cn3)nc2n(C2CCCC2)c1=O [Palbociclib] (partner 0.5 µM)
Procedure, shortened: (§1)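 Lung cancer cell lines were seeded in 1536-well plates and dosed by pin tool the next day, with either a single drug or a fixed anchor-drug dose combined with five library-drug doses (not always all listed) spaced in √10 steps. Five days later, one step fixed the cells and stained their nuclei (final 0.05% Triton X-100, 1% formaldehyde, 1 ug/ml Hoechst), and nuclei were counted on 4× images. Relative viability is the nuclei count in treated wells divided by the count in vehicle wells, and each value is the median of duplicate plates.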

[2] = compound: CC(=O)Nc1cccc(-n2c(=O)n(C3CC3)c(=O)c3c(Nc4ccc(I)cc4F)n(C)c(=O)c(C)c32)c1 [Trametinib] + COc1cccc2cc(-c3nc([C@H]4CC[C@H](C(=O)O)CC4)n4ncnc(N)c34)[nH]c12 [OSI-027] (partner 0.5 µM)
Procedure, shortened: as §1

[3] = compound: CC(=O)Nc1cccc(-n2c(=O)n(C3CC3)c(=O)c3c(Nc4ccc(I)cc4F)n(C)c(=O)c(C)c32)c1 [Trametinib] + Cc1nc(Nc2ncc(C(=O)Nc3c(C)cccc3Cl)s2)cc(N2CCN(CCO)CC2)n1 [Dasatinib] (partner 0.075 µM)
Procedure, shortened: as §1

[4] = compound: CN1C=C(C2=CC=CC=C21)/C=C\3/C4=C(C=CC=N4)NC3=O + Nc1nc2[nH]cc(CCc3ccc(C(=O)N[C@@H](CCC(=O)O)C(=O)O)cc3)c2c(=O)[nH]1 [Pemetrexed] (partner 0.2 µM)
Procedure, shortened: as §1

## UMC-11
[1]; first compound 0.0025 µM
  relative viability: 0.32
[1]; first compound 0.007906 µM
  relative viability: 0.333
[1]; first compound 0.25 µM
  relative viability: 0.312
[2]; first compound 0.0025 µM
  relative viability: 0.478
[2]; first compound 0.007906 µM
  relative viability: 0.403
[2]; first compound 0.025 µM
  relative viability: 0.291
[2]; first compound 0.07906 µM
  relative viability: 0.414
[2]; first compound 0.25 µM
  relative viability: 0.406
[3]; first compound 0.0025 µM
  relative viability: 0.446
[3]; first compound 0.007906 µM
  relative viability: 0.509
[3]; first compound 0.025 µM
  relative viability: 0.385
[3]; first compound 0.07906 µM
  relative viability: 0.491
[3]; first compound 0.25 µM
  relative viability: 0.49
[4]; first compound 0.02 µM
  relative viability: 0.655
[4]; first compound 0.06325 µM
  relative viability: 0.744
[4]; first compound 0.2 µM
  relative viability: 0.801
[4]; first compound 0.6325 µM
  relative viability: 0.857
[4]; first compound 2 µM
  relative viability: 0.936

— the supplement of paper PMC10307832
